# System: blood collected from volunteers
# Experiment: Measurement of whole blood clotting time (Sonoclot, ACT ONSET value)
# Parameters: species or system human
# Method: To a cuvette (NON-ACTIVATED CLOTTING TEST KIT), 18 μL of physiological saline was placed, and 14.8 μL of calcicol was added thereto, followed by further adding 342 μL of blood supplemented with citric acid. Thereafter, the measurement using Sonoclot blood coagulation/platelet function analyzer (IMI Co., Ltd.) was carried out to define the obtained ACT ONSET value as whole blood clotting time.
compound,measurement,setting,value
CC1CNc2c(cccc2S(=O)(=O)N[C@@H](CCCNC(=N)N)C(=O)N2CC[C@@H](C)C[C@@H]2C(=O)O)C1 (mixture of isomers) [argatroban],whole blood clotting time,2 μM argatroban solution,531 s
same,whole blood clotting time,10 μM argatroban solution,746 s
same,whole blood clotting time,20 μM argatroban solution,849 s
